What all share (type): cell-based
The target of one experiment is T1, CDK2 (Homo sapiens, UniProt P24941).
T1 construct: host or cells: HEK293-CDK2-Hibit
The experiment in a line: HiBit Assay Protocol for CDK2 (HIBIT protein quantification, degradation). As to conditions: HEK293-CDK2-Hibit cells, compound treatment for 6 hours; for DC50: ABS DC50. The method, boiled down: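 DC50 comes from a fitted curve of remaining CDK2-HiBiT luminescence, referenced to DMSO-treated cells and medium-only wells. HEK293-CDK2-HiBiT cells, plated the previous night, received compounds in a 10-point, 3-fold series for 6 h before lysis with LgBiT-containing Nano-Glo HiBiT reagent.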
A general note: HiBiT is a short tag that completes a luciferase, so light tracks the accessible tagged protein.

The target of experiment [1] is T2, CCNE1 (Homo sapiens, UniProt P24864).
T2 construct: host or cells: HEK293-CCNE1-Hibit
As to the kind of experiment: HiBit Assay Protocol for CCNE1 (HIBIT protein quantification, degradation). To be noted: HEK293-CCNE1-Hibit cells, compound treatment for 6 hours. The method in brief: (§1)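 Degradation readout: lytic Nano-Glo HiBiT luminescence after 6 h exposure of HEK293-CCNE1-HiBiT cells to 10-point, 3-fold serial dilutions. Signal was scaled between medium-only and DMSO-treated wells, and DC50 came from curve fits.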

In experiment [2] the target is T3, CCNE1 (Homo sapiens, UniProt P24864+P24941).
T3 construct: host or cells: HEK293-CCNE1-Hibit
The description is as above. To be noted: HEK293-CCNE1-Hibit cells, compound treatment for 6 hours, ABS DC50. The method, boiled down: as §1

A further experiment addresses T4, CDK9 (Homo sapiens, UniProt P50750).
T4 construct: host or cells: HEK293-CDK9-Hibit
As to the kind of experiment: HiBit Assay Protocol for CDK9 (HIBIT protein quantification, degradation). As to conditions: HEK293-CDK9-Hibit cells, compound treatment for 6 hours; for Dmax: read-out: CDK9 HIBIT Protein Quantification Maximum; for DC50: ABS DC50. The method, boiled down: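 Degradation read-out: luminescence after lytic HiBiT/LgBiT detection in HEK293-CDK9-HiBiT cells exposed 6 h to 10-point, 3-fold compound dilutions. Signal scaled between 0.1% DMSO-treated cells and medium alone; DC50 fitted from the curve.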

Where two headings read alike, the source gives them in different places.

T3 sequence (P24864 whole entry, one chain of several): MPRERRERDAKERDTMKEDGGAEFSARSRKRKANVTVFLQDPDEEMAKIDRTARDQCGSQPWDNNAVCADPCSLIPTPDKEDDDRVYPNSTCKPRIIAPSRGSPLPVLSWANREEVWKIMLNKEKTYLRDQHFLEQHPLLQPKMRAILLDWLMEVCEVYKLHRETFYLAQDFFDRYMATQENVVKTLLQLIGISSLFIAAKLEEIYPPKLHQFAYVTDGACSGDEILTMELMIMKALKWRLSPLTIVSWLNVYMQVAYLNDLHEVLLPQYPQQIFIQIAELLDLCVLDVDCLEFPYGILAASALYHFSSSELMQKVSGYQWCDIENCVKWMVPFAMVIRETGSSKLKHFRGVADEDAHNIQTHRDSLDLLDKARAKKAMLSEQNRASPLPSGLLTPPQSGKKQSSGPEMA
T2 sequence (P24864 whole entry): as the sequence (P24864 whole entry, one chain of several) above
T4 sequence (P50750 whole entry): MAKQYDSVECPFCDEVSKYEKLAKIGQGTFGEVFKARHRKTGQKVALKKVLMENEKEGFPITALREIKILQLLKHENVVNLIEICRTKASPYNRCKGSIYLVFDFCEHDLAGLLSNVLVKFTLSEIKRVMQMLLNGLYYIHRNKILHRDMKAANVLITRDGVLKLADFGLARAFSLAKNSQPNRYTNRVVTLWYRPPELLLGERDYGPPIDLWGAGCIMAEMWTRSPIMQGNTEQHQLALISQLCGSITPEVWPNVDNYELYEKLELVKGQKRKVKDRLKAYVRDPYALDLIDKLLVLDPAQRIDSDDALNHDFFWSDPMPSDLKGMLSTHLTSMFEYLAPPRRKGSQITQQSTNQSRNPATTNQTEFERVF

Take `CC1CCCC1N1C(=O)C2(CC2)c2cnc(Nc3ccc(S(=O)(=O)N(C)CCCN4CCC(c5cccc6c5n(C)c(=O)n6C5CCC(=O)NC5=O)CC4)cc3)nc21` (stereo not drawn) [Compound 117, N-(3-(4-(1-(2,6-dioxopiperidin-3-yl)-3-methyl-2-oxo-2,3-dihydro-1H-benzo[d]imidazol-4-yl)piperidin-1-yl)propyl)-N-methyl-4-((7′-(2-methylcyclopentyl)-6′-oxo-6′,7′-dihydrospiro [cyclopropane-1,5′-pyrrolo[2,3-d]pyrimidin]-2′-yl)amino)benzenesulfonamide]: at CDK2, the “CDK2 HIBIT Protein Quantification Maximum” value was found to be 78%. Besides, the results for the DC50 on CDK2, at CCNE1 [2] and on CDK9 were 10 nM, 7.43 nM and 21.8 nM, respectively. The “CCNE1 HIBIT Protein Quantification Maximum” value at CCNE1 [1] is recorded as 64%. The Dmax at CDK9 (6 h) was found to be 65%.
As for `CC1CN(Cc2cccc(S(=O)(=O)N3CCC(Nc4ncc5c(n4)N([C@@H]4CCC[C@@H](O)C4)C(=O)C54CC4)CC3)c2)CCC1c1ccc2c(N3CCC(=O)NC3=O)nn(C)c2c1` (stereo partly drawn) [Compound 182, 1-[6-(1-{[3-(4-{7′-[(1R,3R)-3-Hydroxycyclohexyl]-6′-oxospiro[cyclopropane-1,5′-pyrrolo[2,3-d]pyrimidin]-2′-ylamino}piperidin-1-ylsulfonyl)phenyl]methyl}-3-methylpiperidin-4-yl)-1-methylindazol-3-yl]-1,3-diazinane-2,4-dione], the “CDK2 HIBIT Protein Quantification Maximum” value at CDK2 is 82%. The DC50 stood at 4.8 nM on CDK2 and 8.09 nM on CCNE1 [2]. At CCNE1 [1], the “CCNE1 HIBIT Protein Quantification Maximum” value worked out at 52%. The Dmax on CDK9 (6 h) was 46%.
In the case of `Cn1nc(N2CCC(=O)NC2=O)c2cccc(C3CCN(Cc4cccc(S(=O)(=O)N5CCC(Nc6ncc7c(n6)N([C@H]6CCC[C@H](O)C6)C(=O)C76CC6)CC5)c4)CC3)c21` (stereo in doubt) [Compound 146, 1-[7-(1-{[3-(4-{7′-[(1S,3S)-3-hydroxycyclohexyl]-6′-oxospiro[cyclopropane-1,5′-pyrrolo[2,3-d]pyrimidin]-2′-ylamino}piperidin-1-ylsulfonyl)phenyl]methyl}piperidin-4-yl)-1-methylindazol-3-yl]-1,3-diazinane-2,4-dione], on CDK2, the “CDK2 HIBIT Protein Quantification Maximum” value was determined as 76% and half-maximal degradation (DC50) was put at 30 nM. Moreover, the “CCNE1 HIBIT Protein Quantification Maximum” value on CCNE1 [1] is 82%. This compound displayed a 50% degradation concentration (DC50) at CCNE1 [2] of 36.2 nM. Moreover, the Dmax at CDK9 came out at 4%.
With `CN(CCCN1CCC(c2cccc3c2n(C)c(=O)n3C2CCC(=O)NC2=O)CC1)S(=O)(=O)N1CCC(Nc2ncc3c(n2)N([C@@H]2CCC[C@@H](O)C2)C(=O)C32CC2)CC1` (stereo partly drawn) [Compound 131, N-(3-{4-[1-(2,6-Dioxopiperidin-3-yl)-3-methyl-2-oxo-1,3-benzodiazol-4-yl]piperidin-1-yl}propyl)-4-{7′-[(1R,3R)-3-hydroxycyclohexyl]-6′-oxospiro[cyclopropane-1,5′-pyrrolo[2,3-d]pyrimidin]-2′-ylamino}-N-methylpiperidine-1-sulfonamide], the “CDK2 HIBIT Protein Quantification Maximum” value on CDK2 is recorded as 83%. The DC50 on CDK2 was 21.9 nM; on CCNE1 [2], 19.9 nM; on CDK9, 69.2 nM. In addition, the “CCNE1 HIBIT Protein Quantification Maximum” value at CCNE1 [1] is on record as 63%. Moreover, the Dmax at CDK9 (6 h) was 56%.
In the case of `O=C1CCC(N2Cc3cc(CN4CC(Oc5cccc(S(=O)(=O)c6ccc(Nc7ncc8c(n7)N([C@@H]7CCC[C@@H](O)C7)C(=O)C87CC7)cc6)c5)C4)ccc3C2=O)C(=O)N1` (stereo partly drawn) [Compound 125, 3-[5-({3-[3-(4-{7′-[(1R,3R)-3-hydroxycyclohexyl]-6′-oxospiro[cyclopropane-1,5′-pyrrolo [2,3-d]pyrimidin]-2′-ylamino}benzenesulfonyl)phenoxy]azetidin-1-yl}methyl)-1-oxo-3H-isoindol-2-yl]piperidine-2,6-dione], at CDK2, the “CDK2 HIBIT Protein Quantification Maximum” value is listed as 54% and it took 4 nM to reach half-maximal degradation (DC50). Besides, the “CCNE1 HIBIT Protein Quantification Maximum” value at CCNE1 [1] was 81%. On CCNE1 [2], this compound yielded a DC50 of 2.35 nM. The Dmax at CDK9 was 13%.

What is called DC50 is the concentration at which degradation of the target reaches its halfway point. High values mean degradation only at high concentration, low ones degradation at low concentration.

The values above are taken from patent US20260070917A1, “CYCLIN DEPENDENT KINASE DEGRADERS AND METHODS OF USE THEREOF” (Differentiated Therapeutics Inc, priority 2023, published 2026).
